Test results as given in PubChem BioAssay AID1963983 (Molecular Pharmacology Branch, DTP, NCI, 2024).

Tested on: 186277-243-T-J2-PDC multi-cell spheroid viability
Assay: Anticancer human tumor 186277-243-T-J2-PDC patient-derived colon adenocarcinoma cell line growth inhibition [PI3K]
Settings: for IC50: curve of first compound; for viability, T/C: stronger effect = lower value
Procedure, shortened: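 High-throughput combination screen: PI3K inhibitors crossed with targeted small molecules on complex spheroids of tumor cells, HUVEC and MSCs at 37 degrees C, 5% CO2. Top concentration was at or near clinical Cmax (otherwise 10 microM), with half-log decrements.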

[1] = second compound 0.0316 µM, first compound 0.0316 µM
[2] = second compound 0.0316 µM, first compound 0.1 µM
[3] = second compound 0.0316 µM, first compound 0.316 µM
[4] = second compound 0.0316 µM, first compound 1 µM
[5] = second compound 0.0316 µM, first compound 3.16 µM
[6] = second compound 0.0316 µM, first compound 10 µM
[7] = second compound 0.1 µM, first compound 0.0316 µM
[8] = second compound 0.1 µM, first compound 0.1 µM
[9] = second compound 0.1 µM, first compound 0.316 µM
[10] = second compound 0.1 µM, first compound 1 µM
[11] = second compound 0.1 µM, first compound 3.16 µM
[12] = second compound 0.1 µM, first compound 10 µM
[13] = second compound 0.316 µM, first compound 0.0316 µM
[14] = second compound 0.316 µM, first compound 0.1 µM
[15] = second compound 0.316 µM, first compound 0.316 µM
[16] = second compound 0.316 µM, first compound 1 µM
[17] = second compound 0.316 µM, first compound 3.16 µM
[18] = second compound 0.316 µM, first compound 10 µM
[19] = second compound 1 µM, first compound 0.0316 µM
[20] = second compound 1 µM, first compound 0.1 µM
[21] = second compound 1 µM, first compound 0.316 µM
[22] = second compound 1 µM, first compound 1 µM
[23] = second compound 1 µM, first compound 3.16 µM
[24] = second compound 1 µM, first compound 10 µM
[25] = second compound 3.16 µM, first compound 0.0316 µM
[26] = second compound 3.16 µM, first compound 0.1 µM
[27] = second compound 3.16 µM, first compound 0.316 µM
[28] = second compound 3.16 µM, first compound 1 µM
[29] = second compound 3.16 µM, first compound 3.16 µM
[30] = second compound 3.16 µM, first compound 10 µM
[31] = second compound 10 µM, first compound 0.0316 µM
[32] = second compound 10 µM, first compound 0.1 µM
[33] = second compound 10 µM, first compound 0.316 µM
[34] = second compound 10 µM, first compound 1 µM
[35] = second compound 10 µM, first compound 3.16 µM
[36] = second compound 10 µM, first compound 10 µM
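Also: spheroids exposed to compounds for seven days before viability reading.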
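For viability, T/C in this document: 100% = DMSO vehicle control viability.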

CC(Cn1ccc(-c2ccc(C#N)c(Cl)c2)n1)NC(=O)c1cc(C(C)O)[nH]n1 (centres undefined) + Cc1nc(NC(=O)N2CCCC2C(N)=O)sc1-c1ccnc(C(C)(C)C(F)(F)F)c1
IC50 (second compound 0.0316 µM): > 10 µM
IC50 (second compound 0.1 µM): > 10 µM
IC50 (second compound 0.316 µM): > 10 µM
IC50 (second compound 1 µM): > 10 µM
IC50 (second compound 3.16 µM): > 10 µM
IC50 (second compound 10 µM): < 0.0316 µM
viability, T/C [1]: 99.2%
viability, T/C [2]: 96.7%
viability, T/C [3]: 98.5%
viability, T/C [4]: 93%
viability, T/C [5]: 116%
viability, T/C [6]: 107%
viability, T/C [7]: 112%
viability, T/C [8]: 103%
viability, T/C [9]: 88.6%
viability, T/C [10]: 109%
viability, T/C [11]: 107%
viability, T/C [12]: 122%
viability, T/C [13]: 99.7%
viability, T/C [14]: 97.6%
viability, T/C [15]: 103%
viability, T/C [16]: 116%
viability, T/C [17]: 105%
viability, T/C [18]: 97.5%
viability, T/C [19]: 103%
viability, T/C [20]: 92.8%
viability, T/C [21]: 86%
viability, T/C [22]: 97.9%
viability, T/C [23]: 86.8%
viability, T/C [24]: 88.3%
viability, T/C [25]: 56.5%
viability, T/C [26]: 60.2%
viability, T/C [27]: 54.2%
viability, T/C [28]: 58.9%
viability, T/C [29]: 50.7%
viability, T/C [30]: 54.8%
viability, T/C [31]: 21.6%
viability, T/C [32]: 14.2%
viability, T/C [33]: 18.5%
viability, T/C [34]: 17.1%
viability, T/C [35]: 15.8%
viability, T/C [36]: 12.7%

CC1(C)CCC(Nc2ncc(C(F)(F)F)c(-c3c[nH]c4c(P(C)(C)=O)c(C#N)ccc34)n2)CN1 (centres undefined) + Cc1nc(NC(=O)N2CCCC2C(N)=O)sc1-c1ccnc(C(C)(C)C(F)(F)F)c1
IC50 (second compound 0.0316 µM): 3.56 µM
IC50 (second compound 0.1 µM): 4.03 µM
IC50 (second compound 0.316 µM): 2.31 µM
IC50 (second compound 1 µM): 0.541 µM
IC50 (second compound 3.16 µM): < 0.0316 µM
IC50 (second compound 10 µM): < 0.0316 µM
viability, T/C [1]: 76.1%
viability, T/C [2]: 55.9%
viability, T/C [3]: 57.9%
viability, T/C [4]: 61.4%
viability, T/C [5]: 55.8%
viability, T/C [6]: 0.33%
viability, T/C [7]: 81.5%
viability, T/C [8]: 54.2%
viability, T/C [9]: 56.7%
viability, T/C [10]: 59%
viability, T/C [11]: 65%
viability, T/C [12]: 0.22%
viability, T/C [13]: 77%
viability, T/C [14]: 65.4%
viability, T/C [15]: 55.4%
viability, T/C [16]: 60.7%
viability, T/C [17]: 48.7%
viability, T/C [18]: 0.44%
viability, T/C [19]: 63.4%
viability, T/C [20]: 57.9%
viability, T/C [21]: 49.5%
viability, T/C [22]: 49.2%
viability, T/C [23]: 28.3%
viability, T/C [24]: 0.27%
viability, T/C [25]: 31%
viability, T/C [26]: 34.3%
viability, T/C [27]: 21.6%
viability, T/C [28]: 29.4%
viability, T/C [29]: 8.8%
viability, T/C [30]: 0.65%
viability, T/C [31]: 7.49%
viability, T/C [32]: 7.95%
viability, T/C [33]: 8.74%
viability, T/C [34]: 4.41%
viability, T/C [35]: 5.08%
viability, T/C [36]: 1.35%
